We go through 23 molecules from ChEMBL document CHEMBL4325890, “Novel tyrosyl-DNA phosphodiesterase 1 inhibitors enhance the therapeutic impact of topoteсan on in vivo tumor models” (Eur J Med Chem, 2019).

By IC50 is commonly meant the point on the concentration scale where inhibition reaches its midpoint. High values mean weaker potency in that assay, low ones greater potency in that assay. What is called Kd is the constant that tells how readily two partners part at equilibrium. In general, bioavailability refers to the share of a dose that reaches the circulation, judged against a reference dose that is usually intravenous. Low readings indicate poor availability, high ones good availability. The CC50 is the concentration giving 50% cytotoxicity. High values mean better tolerance by the cells, low ones harm at low concentration. A word on the LD50: it is the dose expected to kill half of the subjects tested. Low readings indicate greater toxicity, high ones lower toxicity.

The target of data set [1] is T1, Tyrosyl-DNA phosphodiesterase 1 (Homo sapiens, UniProt Q9NUW8). Description: Inhibition of Tdp1 (unknown origin).
Data set [2] has as its target T1, Tyrosyl-DNA phosphodiesterase 1.
Data set [3] can be described thus: Toxicity in C57BL/6 mouse implanted with C57BL mouse LLC cells assessed as state and behavioral changes at 1.5 mg/kg, ip administered on day 4, 5, 7 and 9 post-transplantation. The format is organism-based. The following applies: in vivo.
The nature of data set [4]: Toxicity in C57BL/6 mouse implanted with C57BL mouse LLC cells assessed as death at 1.5 mg/kg, ip administered on day 4, 5, 7 and 9 post-transplantation. The format is organism-based. The following applies: in vivo.
Data set [5] in a line: Toxicity in C57BL/6 mouse implanted with C57BL mouse LLC cells assessed as change in body weight at 1.5 mg/kg, ip administered on day 4, 5, 7 and 9 post-transplantation (reference value: 90%). The following applies: in vivo. The format is organism-based.
A short description of data set [6]: Toxicity in C57BL/6 mouse implanted with C57BL mouse LLC cells assessed as liver index at 1.5 mg/kg, ip administered on day 4, 5, 7 and 9 post-transplantation measured 17 days post-transplantation (reference value: 5.8 +/- 0.38%). The format is organism-based. The settings on record: in vivo, 408 h.
Data set [7] in a line: Toxicity in C57BL/6 mouse implanted with C57BL mouse LLC cells assessed as spleen weight at 1.5 mg/kg, ip administered on day 4, 5, 7 and 9 post-transplantation measured 17 days post-transplantation (reference value: 252 +/- 12 mg). The following applies: in vivo, 408 h. Format: organism-based.
The target of data set [8] is T1, Tyrosyl-DNA phosphodiesterase 1. Description: Binding affinity to recombinant human Tdp1 (149 to 608 residues) expressed in Escherichia coli BL21 (DE3) by tryptophan fluorescence quenching assay.
The nature of data set [9]: Stability of the compound assessed as imine hydrolysis at pH 1 HCl solution incubated for 24 hrs under shaking condition. Format: physicochemical. The settings on record: buffer, pH 1, 24 h.
A short description of data set [10]: Oral bioavailability in rabbit at 20 mg/kg by HPLC analysis. Format: ADME, organism-based, Oryctolagus cuniculus. The settings on record: in vivo.
A short description of data set [11]: Cytotoxicity against human MCF7 cells after 3 days by [3H]-thymidine incorporation assay. Format: cell-based. On the technique in general: Incorporation of labelled thymidine or its analogues reports DNA synthesis.
The nature of data set [12]: Cytotoxicity against mouse LLTC cells after 3 days by [3H]-thymidine incorporation assay. The format is cell-based.
Data set [13] is described as follows: Acute toxicity in ig dosed specific pathogen free CD-1 mouse. The format is organism-based. The following applies: in vivo, po.
Data set [14] can be described thus: Toxicity in C57BL/6 mouse implanted with C57BL mouse LLC cells assessed as state and behavioral changes at 100 mg/kg, ig administered as single dose. Format: organism-based. The following applies: in vivo, po.
Data set [15] is described as follows: Toxicity in C57BL/6 mouse implanted with C57BL mouse LLC cells assessed as state and behavioral changes at 100 mg/kg, ig administered as single dose in presence of topotecan. The format is organism-based. The settings on record: in vivo, po.
The nature of data set [16]: Toxicity in C57BL/6 mouse implanted with C57BL mouse LLC cells assessed as death at 100 mg/kg, ig in presence of topotecan. The format is organism-based. The following applies: in vivo, po.
Data set [17] is described as follows: Toxicity in C57BL/6 mouse implanted with C57BL mouse LLC cells assessed as death at 100 mg/kg, ig. Format: organism-based. The following applies: in vivo, po.
Data set [18] is described as follows: Toxicity in C57BL/6 mouse implanted with C57BL mouse LLC cells assessed as change in body weight at 100 mg/kg, ig administered as single dose (reference value: 90%). The format is organism-based. The following applies: in vivo, po.
Data set [19] can be described thus: Toxicity in C57BL/6 mouse implanted with C57BL mouse LLC cells assessed as change in body weight at 100 mg/kg, ig administered as single dose in presence of topotecan (reference value: 90%). The settings on record: in vivo, po. The format is organism-based.
Data set [20] deals with Lewis lung carcinoma cell line. Briefly: Cytotoxicity against C57BL mouse LLC cells implanted in C57BL/6 mouse assessed as tumor weight at 100 mg/kg, ig administered as single dose measured 17 days post transplantation (reference value: 3.3 +/- 0.28 g). The following applies: in vivo, po, 408 h. Format: organism-based.
The subject of data set [21] is Lewis lung carcinoma cell line. Description: Potentiation of topotecan-induced anticancer activity against C57BL mouse LLC cells implanted in C57BL/6 mouse assessed as tumor weight at 100 mg/kg, ig administered as single dose measured 17 days post transplantation (reference value: 2.9 +/- 0.28 g). The format is functional.
Data set [22] is described as follows: Toxicity in C57BL/6 mouse implanted with C57BL mouse LLC cells assessed as liver index at 100 mg/kg, ig administered as single dose measured 17 days post-transplantation in presence of topotecan (reference value: 5.8 +/- 0.38%). The format is organism-based. The following applies: in vivo, po, 408 h.
Data set [23] is described as follows: Toxicity in C57BL/6 mouse implanted with C57BL mouse LLC cells assessed as liver index at 100 mg/kg, ig administered as single dose measured 17 days post-transplantation (reference value: 5.8 +/- 0.38%). Format: organism-based. The settings on record: in vivo, po, 408 h.
Data set [24] in a line: Toxicity in C57BL/6 mouse implanted with C57BL mouse LLC cells assessed as spleen weight at 100 mg/kg, ig administered as single dose measured 17 days post-transplantation in presence of topotecan (reference value: 252 +/- 12 mg). The format is organism-based. The settings on record: in vivo, po, 408 h.
Data set [25] in a line: Toxicity in C57BL/6 mouse implanted with C57BL mouse LLC cells assessed as spleen weight at 100 mg/kg, ig administered as single dose measured 17 days post-transplantation (reference value: 252 +/- 12 mg). Format: organism-based. The settings on record: in vivo, po, 408 h.
The test system of data set [26] is Lewis lung carcinoma cell line. Description: Cytotoxicity against C57BL mouse LLC cells implanted in C57BL/6 mouse assessed as effect on number of metastatic nodules in lung at 100 mg/kg, ig administered as single dose measured 17 days post transplantation by microscopic analysis. The format is organism-based. The settings on record: in vivo, po, 408 h.
The target in data set [27] is T1, Tyrosyl-DNA phosphodiesterase 1. This is another data set of the same source.

Bounds are passed on as bounds.

T1 sequence (Q9NUW8 whole entry): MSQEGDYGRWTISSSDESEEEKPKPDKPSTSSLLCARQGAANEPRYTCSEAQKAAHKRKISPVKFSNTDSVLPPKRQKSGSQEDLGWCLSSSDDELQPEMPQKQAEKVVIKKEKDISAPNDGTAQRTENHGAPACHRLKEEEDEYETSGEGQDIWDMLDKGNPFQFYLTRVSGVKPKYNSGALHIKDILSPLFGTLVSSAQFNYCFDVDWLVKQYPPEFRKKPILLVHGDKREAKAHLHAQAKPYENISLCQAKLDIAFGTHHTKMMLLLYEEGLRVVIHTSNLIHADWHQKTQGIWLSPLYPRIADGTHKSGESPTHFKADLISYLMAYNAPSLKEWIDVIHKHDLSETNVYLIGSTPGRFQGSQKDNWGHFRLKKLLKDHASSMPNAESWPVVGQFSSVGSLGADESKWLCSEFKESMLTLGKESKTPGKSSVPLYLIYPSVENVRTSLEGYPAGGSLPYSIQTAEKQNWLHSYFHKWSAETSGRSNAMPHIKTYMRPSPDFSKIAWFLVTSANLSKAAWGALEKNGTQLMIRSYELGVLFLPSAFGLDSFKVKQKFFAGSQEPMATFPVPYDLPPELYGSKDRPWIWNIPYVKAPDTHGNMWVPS

For the molecule `Cc1ccc(C)n1-c1ccc(Cl)c(C(=O)O)c1`, in data set [1], the half-inhibitory concentration (IC50) was determined as 0.11 µM.
Molecule `CC(=O)C1=C(O)C=C2Oc3c(C(C)=O)c(O)c(C)c(O)c3[C@@]2(C)C1=O` [(+)-USNIC ACID] showed an IC50 in data set [2] of more than 50 µM.
Take `CC[C@@]1(O)C(=O)OCc2c1cc1n(c2=O)Cc2cc3c(CN(C)C)c(O)ccc3nc2-1` [TOPOTECAN]: the Activity result in [3] is listed as “Non-Toxic”; in data set [4] it was “Non-Toxic”; in data set [5], 88.1%; in data set [6] it was 5.8%; in data set [7] it was 260 mg.
In the case of `CC(=O)C1=C(O)C=C2Oc3c(-c4csc(C)n4)c(O)c(C)c(O)c3[C@@]2(C)C1=O`, half-maximal inhibition in data set [2] (IC50) was put at 4.1 µM.
With `CC(=O)C1=C(O)C=C2Oc3c(-c4csc(N/N=C/c5cccc([N+](=O)[O-])c5)n4)c(O)c(C)c(O)c3[C@@]2(C)C1=O`, the IC50 in data set [2] amounted to 0.086 µM. Further, in data set [8], the Kd came out at 6.2 µM. Besides, the Stability entry in [9] is listed as “Stable”.
With `COc1ccc(/C=N/Nc2nc(-c3c(O)c(C)c(O)c4c3OC3=CC(O)=C(C(C)=O)C(=O)[C@@]34C)cs2)cc1`, the concentration for half-maximal inhibition (IC50) in [2] was found to be 0.158 µM. Also, the Kd in data set [8] came to 8.65 µM. The Stability entry in [9] was “Stable”.
`CC(=O)C1=C(O)C=C2Oc3c(-c4csc(Nc5ccccc5)n4)c(O)c(C)c(O)c3[C@@]2(C)C1=O` showed an IC50 in data set [2] of 0.61 µM.
In turn, `C=CCNc1nc(-c2c(O)c(C)c(O)c3c2OC2=CC(O)=C(C(C)=O)C(=O)[C@@]23C)cs1` registered a half-inhibitory concentration (IC50) in data set [2] of 1.25 µM.
On to `CC(=O)C1=C(O)C=C2Oc3c(C(=O)CSC#N)c(O)c(C)c(O)c3[C@@]2(C)C1=O`, for which the IC50 in data set [1] came out at 1.01 µM.
Molecule `CC(=O)c1c([O-])c(C)c([O-])c2c1OC1=CC(=O)C(C(C)=O)C(=O)[C@@]12C.[Na+].[Na+]` (stereo not given in full) came in with a bioavailability in data set [10] of 78%.
The molecule `CC(=O)C1=C(O)C=C2Oc3c(-c4csc(N/N=C/c5ccc(F)cc5)n4)c(O)c(C)c(O)c3[C@@]2(C)C1=O` yielded a half-inhibitory concentration (IC50) in data set [2] of 0.15 µM. For the same molecule, in data set [8], the Kd is 35.2 µM. Moreover, the Stability result in data set [9] is listed as “Stable”.
As for `CC(=O)C1=C(O)C=C2Oc3c(-c4csc(-c5cccnc5)n4)c(O)c(C)c(O)c3[C@@]2(C)C1=O`, the midpoint of inhibition in data set [2], the IC50, lay at 1.21 µM.
Still for that read-out and setting: then `CC(=O)C1=C(O)C=C2Oc3c(-c4csc(N)n4)c(O)c(C)c(O)c3[C@@]2(C)C1=O`, with 3.8 µM.
On to `COc1cc(/C=N/Nc2nc(-c3c(O)c(C)c(O)c4c3OC3=CC(O)=C(C(C)=O)C(=O)[C@@]34C)cs2)ccc1O`, for which the 50% inhibitory concentration (IC50) in data set [2] was 0.192 µM. In data set [8], the Kd stood at 44.6 µM. The Stability result in data set [9] is “Stable”.
The molecule `CC(=O)C1=C(O)C=C2Oc3c(-c4csc(N/N=C/c5ccccc5)n4)c(O)c(C)c(O)c3[C@@]2(C)C1=O` gave an IC50 in [2] of 0.172 µM. The dissociation constant (Kd) in [8] was found to be 7.14 µM. Besides, in data set [9], the Stability entry is recorded as “Stable”.
`CC(=O)C1=C(O)C=C2Oc3c(-c4csc(N/N=C/c5ccc(O)cc5)n4)c(O)c(C)c(O)c3[C@@]2(C)C1=O` gave an IC50 in data set [2] of 0.457 µM. The Kd in data set [8] was 31.1 µM. Further, the Stability result in [9] is listed as “Stable”.
Regarding `CC(=O)C1=C(O)C=C2Oc3c(-c4csc(N/N=C/c5ccc(Br)cc5)n4)c(O)c(C)c(O)c3[C@@]2(C)C1=O`, in [8], the Kd is 7.02 µM. The half-maximal cytotoxic concentration (CC50) at 72 h in [11] came to 1.69 µM; in [12], 1.67 µM. Further, in data set [13], the LD50 is more than 5000 mg/kg. The Activity entry in data set [14] is “Non-Toxic”; in data set [15], “Non-Toxic”; in data set [16], “Non-Toxic”; in data set [17], “Non-Toxic”; in [18], 88.2%; in data set [19], 89.7%. Also, the Activity in [20] came out at 3.3 g; in data set [21] it was 1.4 g; in data set [22] it was 6.5%; in [23], 6%; in data set [24], 326 mg; in data set [25], 281 mg. Also, the Activity result in data set [26] is “Non-Toxic”. For the same molecule, the Stability entry in [9] was “Stable”.
`CC(C)=CCCC(C)CCNC1C2CC3CC(C2)CC1C3` (stereo not given) displayed an IC50 in [2] of 3.5 µM.
In the case of `CC(=O)C1=C(O)C=C2Oc3c(-c4csc(N/N=C/c5ccc([N+](=O)[O-])cc5)n4)c(O)c(C)c(O)c3[C@@]2(C)C1=O`, the IC50 in data set [2] came out at 0.035 µM. In addition, the Kd in data set [8] was 10.7 µM. For the same molecule, the Stability result in [9] is “Stable”.
Turning to `COc1cc(/C=C2\SC(=S)N(c3ccc([N+](=O)[O-])cc3)C2=O)cc(Br)c1O`, the IC50 in data set [27] was 1.08 µM. That is a single-digit micromolar value.
Turning to `CC(=O)C1=C(O)C=C2Oc3c(-c4csc(N/N=C/c5ccc(Cl)cc5)n4)c(O)c(C)c(O)c3[C@@]2(C)C1=O`, in data set [2], the IC50 worked out at 0.068 µM. Moreover, in [8], the Kd came to 9.46 µM. Moreover, in data set [9], the Stability result is reported as “Stable”.
`CNc1nc(-c2c(O)c(C)c(O)c3c2OC2=CC(O)=C(C(C)=O)C(=O)[C@@]23C)cs1` displayed a 50% inhibitory concentration (IC50) in data set [2] of 5.9 µM.
In [2], `CC(=O)C1=C(O)C=C2Oc3c(-c4csc(-c5ccccc5)n4)c(O)c(C)c(O)c3[C@@]2(C)C1=O` registered an IC50 of 1.12 µM.
